Experimental data reported in ChEMBL document CHEMBL1201862, “PubChem BioAssay data set” (2004).
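Results reflect a 48-hour exposure of cells in 96-well plates to compound at five concentrations. At the GI50, growth is halved.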 Activity calls are given as the source filed them. No stated cut-off is given here; in the data, active = GI50 up to about 1.1 µM and inactive = higher.

Columns and labels:
Experiment in all cases: NCI anticancer screen, dose series, 48 h
[1] = system: NCI-H522
[2] = system: UACC-257
[3] = system: SN12C
[4] = system: SF-539
[5] = system: RXF 393
[6] = system: NCI-H226
[7] = system: A549
[8] = system: SW-620
[9] = system: KM12
[10] = system: SK-MEL-5
[11] = system: ACHN
[12] = system: LXFL 529
[13] = system: CCRF-CEM
[14] = system: DLD-1
[15] = system: K562
[16] = system: SNB-78
[17] = system: SNB-75
[18] = system: HOP-62
[19] = system: CAKI-1
[20] = system: 786-0
[21] = system: OVCAR-5
[22] = system: RPMI-8226
[23] = system: HCC 2998
[24] = system: M19-MEL
[25] = system: HCT-15
[26] = system: DMS-273
[27] = system: HT-29
[28] = system: UACC-62
[29] = system: LOX IMVI
[30] = system: U-251
[31] = system: A498
[32] = system: Malme-3M
[33] = system: IGROV-1
[34] = system: SF-268
[35] = system: KM-20L2
[36] = system: SK-MEL-2
[37] = system: TK-10
[38] = system: NCI-H460
[39] = system: OVCAR-8
[40] = system: DMS-114
[41] = system: SF-295
[42] = system: HCT-116
[43] = system: MOLT-4
[44] = system: EKVX
[45] = system: OVCAR-3
[46] = system: COLO 205
[47] = system: SK-OV-3
[48] = system: XF498
[49] = system: M14
[50] = system: UO-31
[51] = system: HL-60
[52] = system: SK-MEL-28
[53] = system: SNB-19
[54] = system: NCI-H23

## CCOC(=O)CNc1nnnn1C1OC(CO)C(O)C1O (stereo not drawn)
[1]
  GI50: > 100 µM (inactive)
[2]
  GI50: > 100 µM (inactive)
[3]
  GI50: > 100 µM (inactive)
[4]
  GI50: > 100 µM (inactive)
[5]
  GI50: > 100 µM (inactive)
[6]
  GI50: > 100 µM (inactive)
[7]
  GI50: > 100 µM (inactive)
[8]
  GI50: > 100 µM (inactive)
[9]
  GI50: > 100 µM (inactive)
[10]
  GI50: > 100 µM (inactive)
[11]
  GI50: > 100 µM (inactive)
[12]
  GI50: > 100 µM (inactive)
[13]
  GI50: > 100 µM (inactive)
[14]
  GI50: > 100 µM (inactive)
[15]
  GI50: > 100 µM (inactive)
[16]
  GI50: > 100 µM (inactive)
[17]
  GI50: > 100 µM (inactive)
[18]
  GI50: > 100 µM (inactive)
[19]
  GI50: > 100 µM (inactive)
[20]
  GI50: > 100 µM (inactive)
[21]
  GI50: > 100 µM (inactive)
[22]
  GI50: > 100 µM (inactive)
[23]
  GI50: > 100 µM (inactive)
[24]
  GI50: > 100 µM (inactive)
[25]
  GI50: > 100 µM
[26]
  GI50: > 100 µM (inactive)
[27]
  GI50: > 100 µM (inactive)
[28]
  GI50: > 100 µM (inactive)
[29]
  GI50: > 100 µM (inactive)
[30]
  GI50: > 100 µM (inactive)
[31]
  GI50: > 100 µM (inactive)
[32]
  GI50: > 100 µM (inactive)
[33]
  GI50: > 100 µM (inactive)
[34]
  GI50: > 100 µM (inactive)
[35]
  GI50: > 100 µM (inactive)
[36]
  GI50: > 100 µM (inactive)
[37]
  GI50: > 100 µM (inactive)
[38]
  GI50: > 100 µM (inactive)
[39]
  GI50: > 100 µM (inactive)
[40]
  GI50: > 100 µM (inactive)
[41]
  GI50: > 100 µM (inactive)
[42]
  GI50: > 100 µM (inactive)
[43]
  GI50: > 100 µM (inactive)
[44]
  GI50: > 100 µM (inactive)
[45]
  GI50: > 100 µM (inactive)
[46]
  GI50: > 100 µM (inactive)
[47]
  GI50: > 100 µM (inactive)
[48]
  GI50: > 100 µM (inactive)
[49]
  GI50: > 100 µM (inactive)
[50]
  GI50: > 100 µM (inactive)

## NC(=O)c1cccc(C2OC(COP(=O)(O)O)C(O)C2O)c1 (stereo not drawn)
[1]
  GI50: > 50 µM (inactive)
[2]
  GI50: > 50 µM (inactive)
[3]
  GI50: > 50 µM (inactive)
[4]
  GI50: 15.8 µM (inactive)
[5]
  GI50: 18.6 µM (inactive)
[6]
  GI50: 32.9 µM (inactive)
[7]
  GI50: > 50 µM (inactive)
[8]
  GI50: 42.9 µM (inactive)
[9]
  GI50: > 50 µM (inactive)
[10]
  GI50: > 50 µM (inactive)
[11]
  GI50: > 50 µM (inactive)
[12]
  GI50: > 50 µM (inactive)
[13]
  GI50: 9.93 µM (inactive)
[14]
  GI50: 36.6 µM (inactive)
[15]
  GI50: 26.8 µM (inactive)
[16]
  GI50: 43.7 µM (inactive)
[17]
  GI50: 14.4 µM (inactive)
[18]
  GI50: > 50 µM (inactive)
[19]
  GI50: > 50 µM (inactive)
[20]
  GI50: 21.7 µM (inactive)
[21]
  GI50: > 50 µM (inactive)
[22]
  GI50: > 50 µM (inactive)
[23]
  GI50: > 50 µM (inactive)
[24]
  GI50: > 50 µM (inactive)
[25]
  GI50: 27.4 µM
[26]
  GI50: 48 µM (inactive)
[27]
  GI50: > 50 µM (inactive)
[28]
  GI50: > 50 µM (inactive)
[51]
  GI50: 20.7 µM (inactive)
[29]
  GI50: > 50 µM (inactive)
[30]
  GI50: > 50 µM (inactive)
[52]
  GI50: 45.9 µM (inactive)
[31]
  GI50: > 50 µM (inactive)
[32]
  GI50: > 50 µM (inactive)
[33]
  GI50: > 50 µM (inactive)
[53]
  GI50: > 50 µM (inactive)
[34]
  GI50: 36.9 µM (inactive)
[35]
  GI50: > 50 µM (inactive)
[36]
  GI50: > 50 µM (inactive)
[37]
  GI50: > 50 µM (inactive)
[38]
  GI50: > 50 µM (inactive)
[39]
  GI50: 16 µM (inactive)
[41]
  GI50: 39.1 µM (inactive)
[42]
  GI50: > 50 µM (inactive)
[43]
  GI50: 10.9 µM (inactive)
[44]
  GI50: > 50 µM (inactive)
[45]
  GI50: > 50 µM (inactive)
[46]
  GI50: > 50 µM (inactive)
[54]
  GI50: > 50 µM (inactive)
[47]
  GI50: > 50 µM (inactive)
[48]
  GI50: 14.7 µM (inactive)
[49]
  GI50: 20 µM (inactive)
[50]
  GI50: 26.1 µM (inactive)
